Some targets named below: HLA-DR DRB1*1302 (DR13) (Homo sapiens, UniProt P01903+P01911, A100E/A169T/K41T/L162R/M171V/P40S/Q125H/Q178H/Q39Y/Q99D/R42S/S66N/T262R/V115G/W38E/Y61H); HLA-DR DRB4*0101 (DR53) (Homo sapiens, UniProt P01903+P13762, G164S); HLA-DR DRB3*0101 (DR52) (Homo sapiens, UniProt P01903+P79483); HLA-DR DRB5*0101 (DR51) (Homo sapiens, UniProt P01903+Q30154); HLA-DR DRB1*1501 (DR15) (Homo sapiens, UniProt P01903+P01911); HLA-DR DRB1*1101 (DR11) (Homo sapiens, UniProt P01903+P01911, A100R/A169T/A87E/I96F/K41T/L162R/M171V/P40S/Q125H/Q178H/Q39Y/Q99D/R42S/S66Y/T262R/V115G/W38E); HLA-DR DRB1*0802 (DR8) (Homo sapiens, UniProt P01903+P01911, A100R/A103L/A169T/F76Y/H45Y/I96F/K41T/L162R/M171V/P40S/Q125H/Q178H/Q39Y/Q99D/R218S/R42G/S66Y/V115G/W38E); HLA-DR DRB1*0301 (DR3) (Homo sapiens, UniProt P01903+P01911, A100K/A102G/A103R/A169T/F55Y/I96L/K41T/L162R/M171V/P40S/Q125H/Q178H/Q39Y/R42S/S66N/T106N/T262R/W38E/Y61H).

Common to all, as to assay: biochemical
Common to all, as to type: binding

The target in another assay is HLA-DR DRB1*0401 (DR4) (Homo sapiens, UniProt P01903+P01911, A100K/A169T/F76Y/I96L/K127E/L162R/M171V/N62H/P40V/Q125Y/R42H/S133A/S149N/S66Y/V115G/V209L/W38E). As to conditions: DRB1 *0401.
For a further assay, the target named is HLA-DR DRB1*0701 (DR7) (Homo sapiens, UniProt P01903+P01911, A100R/A102G/A103Q/D57E/D86V/E43K/F76Y/K127E/L162R/M171V/P40G/Q125H/Q99D/R33Q/R42Y/R54Q/S133A/S66F/T210M/V115G/Y107V/Y59L/Y89S). As to conditions: DRB1 *0701.
In a further assay the target is HLA-DR DRB1*0901 (DR9) (Homo sapiens, UniProt P01903+P01911, A100R/A103E/D57H/D86V/F55Y/F60I/F76Y/I96F/K127E/L162R/M171V/P40D/Q125H/Q99R/R33Q/R42F/S133A/S66N/T210M/V115G/W38K/Y107V/Y59G/Y89S). Particulars: DRB1 *0901.
Another assay deals with HLA-DR DRB1*0101 (DR1) (Homo sapiens, UniProt P01903+P01911, A100R/D57E/F55L/F60I/F76Y/I96L/L162R/M171V/P40L/Q125E/R42F/V115G/Y59C). Particulars: DRB1 *0101.

Where two headings read alike, the source gives them in different places. No end group written: not given here.

Chain of HLA-DR DRB1*1302 (DR13) (P01903 26-254 limits assumed, other chains not shown): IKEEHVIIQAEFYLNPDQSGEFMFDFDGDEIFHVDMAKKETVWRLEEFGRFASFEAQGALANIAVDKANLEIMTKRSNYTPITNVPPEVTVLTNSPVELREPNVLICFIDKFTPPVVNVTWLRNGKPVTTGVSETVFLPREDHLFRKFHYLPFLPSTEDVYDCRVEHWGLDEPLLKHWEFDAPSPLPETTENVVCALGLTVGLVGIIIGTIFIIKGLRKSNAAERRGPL
Chain of HLA-DR DRB1*1101 (DR11) (P01903 26-254 limits assumed, other chains not shown): as above
Chain of HLA-DR DRB1*0301 (DR3) (P01903 26-254 limits assumed, other chains not shown): as above

As for SHDLMLLRLSEPAKI, the IC50 on HLA-DR DRB1*1302 (DR13) (read-out: DRBI *1302) amounted to 0.0018 µM; on HLA-DR DRB4*0101 (DR53) (read-out: DRB4 *0101), 0.01 µM; at HLA-DR DRB3*0101 (DR52) (read-out: DRB3 *0101), 5.36 µM; on HLA-DR DRB5*0101 (DR51) (read-out: DRB5 *0101), 2.03 µM.

Turning to RLFDNAMLRAHRLHQ, the IC50 at HLA-DR DRB1*1302 (DR13) (read-out: DRBI *1302) was 0.738 µM; at HLA-DR DRB4*0101 (DR53) (read-out: DRB4 *0101) it was 1.63 µM; on HLA-DR DRB3*0101 (DR52) (read-out: DRB3 *0101) it was > 270 µM; at HLA-DR DRB1*1501 (DR15) (read-out: DRBI *1501), 0.018 µM; on HLA-DR DRB5*0101 (DR51) (read-out: DRB5 *0101), 0.058 µM.

For LGFLQRSSNTQTQKL, the IC50 is 0.021 µM at HLA-DR DRB1*1302 (DR13) (read-out: DRBI *1302), > 1750 µM at HLA-DR DRB3*0101 (DR52) (read-out: DRB3 *0101), 26.2 µM on HLA-DR DRB1*1101 (DR11) (read-out: DRB1 *1101) and 0.339 µM on HLA-DR DRB5*0101 (DR51) (read-out: DRB5 *0101).

Take MSAMTALAALFPPEG: the IC50 at HLA-DR DRB3*0101 (DR52) (read-out: DRB3 *0101) was 7.16 µM; on HLA-DR DRB1*1101 (DR11) (read-out: DRB1 *1101), > 200 µM; at HLA-DR DRB5*0101 (DR51) (read-out: DRB5 *0101) it was 63.2 µM.

For the molecule YKTIAYDEEARR, the IC50 on HLA-DR DRB3*0101 (DR52) is > 50 µM; against HLA-DR DRB5*0101 (DR51) (DRB5 *0101) it was ≥ 200 µM.

On to FAGIRRDGLLLRIVD, for which the IC50 came out at 0.553 µM on HLA-DR DRB3*0101 (DR52) (read-out: DRB3 *0101) and 0.028 µM at HLA-DR DRB1*1501 (DR15) (read-out: DRBI *1501).

Regarding HSLFHPEDTGQVFQV, the IC50 at HLA-DR DRB3*0101 (DR52) (read-out: DRB3 *0101) turned out to be 0.553 µM.

Consider `CC(C)C[C@H](NC(=O)[C@@H]1CCCN1C(=O)[C@H](Cc1c[nH]cn1)NC(=O)[C@@H]1CCCN1C(=O)[C@H](Cc1ccccc1)NC(=O)[C@H](CO)NC(=O)[C@H](Cc1c[nH]cn1)NC(=O)[C@H](CO)NC(=O)[C@@H](NC(=O)[C@H](CCC(N)=O)NC(=O)[C@H](Cc1ccccc1)NC(=O)[C@@H](NC(=O)[C@H](CCC(N)=O)NC(=O)CN)C(C)C)C(C)C)C(=O)N[C@@H](Cc1ccc(O)cc1)C(=O)O`, for which the IC50 was found to be 0.146 µM against HLA-DR DRB1*1302 (DR13) (DRBI *1302); 0.0082 µM at HLA-DR DRB1*0401 (DR4); 0.548 µM at HLA-DR DRB1*0802 (DR8); 45 µM at HLA-DR DRB1*0301 (DR3); 0.027 µM against HLA-DR DRB1*0701 (DR7); 0.033 µM against HLA-DR DRB1*0901 (DR9). Besides, the IC50 against HLA-DR DRB1*1501 (DR15) (DRBI *1501) was 2.17 µM; at HLA-DR DRB5*0101 (DR51) (DRB5 *0101) it was 0.128 µM.

Consider DDYVKQYTKQYTKQNTLKK, for which the IC50 against HLA-DR DRB1*0401 (DR4) is 0.16 µM; against HLA-DR DRB3*0101 (DR52), > 11.1 µM; at HLA-DR DRB1*1101 (DR11) (DRB1 *1101), > 1.11 µM; against HLA-DR DRB5*0101 (DR51) (DRB5 *0101) it was 0.035 µM.

For the molecule AWYAWRNRCK, the IC50 at HLA-DR DRB3*0101 (DR52) (read-out: DRB3 *0101) was > 11.1 µM; on HLA-DR DRB1*1101 (DR11) (read-out: DRB1 *1101), > 5 µM; on HLA-DR DRB5*0101 (DR51) (read-out: DRB5 *0101), 0.044 µM.

For the molecule LMAFTAAVTS, the IC50 on HLA-DR DRB1*1302 (DR13) (DRBI *1302) was > 2.46 µM; against HLA-DR DRB1*0401 (DR4) it was 0.321 µM; on HLA-DR DRB4*0101 (DR53) (DRB4 *0101), 11.7 µM; against HLA-DR DRB1*0802 (DR8) it was > 40.6 µM; on HLA-DR DRB1*0301 (DR3), > 74 µM; at HLA-DR DRB1*0701 (DR7), 0.24 µM. Further, the IC50 on HLA-DR DRB1*0901 (DR9) is 0.16 µM; against HLA-DR DRB1*1501 (DR15) (DRBI *1501) it was 1.93 µM; on HLA-DR DRB1*1101 (DR11) (DRB1 *1101) it was > 23.3 µM; at HLA-DR DRB5*0101 (DR51) (DRB5 *0101), > 12.6 µM.

Regarding `CC[C@H](C)[C@H](NC(=O)[C@H](CCC(=O)O)NC(=O)[C@H](CC(N)=O)NC(=O)CNC(=O)[C@H](CC(=O)O)NC(=O)[C@H](CCC(=O)O)NC(=O)[C@H](CC(N)=O)NC(=O)[C@@H](NC(=O)[C@@H](NC(=O)[C@H](CO)NC(=O)[C@@H](NC(=O)[C@@H](N)Cc1ccc(O)cc1)[C@@H](C)CC)[C@@H](C)CC)[C@@H](C)CC)C(=O)N[C@@H](Cc1ccccc1)C(=O)N[C@@H](CC(N)=O)C(=O)N[C@H](C(=O)O)[C@@H](C)O`, the IC50 against HLA-DR DRB1*1302 (DR13) (DRBI *1302) is 0.346 µM; on HLA-DR DRB1*0401 (DR4), 0.624 µM; at HLA-DR DRB4*0101 (DR53) (DRB4 *0101), 3.71 µM; on HLA-DR DRB1*0802 (DR8) it was > 123 µM; at HLA-DR DRB1*0301 (DR3), 0.397 µM; against HLA-DR DRB1*0701 (DR7), 23.7 µM. Further, the IC50 at HLA-DR DRB1*0901 (DR9) was 83.1 µM; against HLA-DR DRB1*1501 (DR15) (DRBI *1501) it was 2.71 µM; on HLA-DR DRB1*1101 (DR11) (DRB1 *1101) it was > 18.9 µM; at HLA-DR DRB5*0101 (DR51) (DRB5 *0101), 73 µM.

`CC[C@H](C)[C@H](NC(=O)[C@H](CS)NC(=O)[C@H](Cc1c[nH]cn1)NC(=O)[C@H](C)NC(=O)[C@H](C)NC(=O)[C@@H](NC(=O)[C@H](CC(C)C)NC(=O)[C@@H](NC(=O)[C@H](Cc1c[nH]c2ccccc12)NC(=O)[C@H](CCC(N)=O)NC(=O)[C@@H]1CCCN1C(=O)[C@@H](N)Cc1c[nH]cn1)C(C)C)[C@@H](C)O)C(=O)N[C@@H](CCCNC(=N)N)C(=O)N[C@@H](CC(N)=O)C(=O)N[C@@H](CCCCN)C(=O)O`: the IC50 came to 0.013 µM on HLA-DR DRB1*0101 (DR1); 1.62 µM at HLA-DR DRB1*0401 (DR4); 5.52 µM at HLA-DR DRB4*0101 (DR53) (DRB4 *0101); 1.3 µM against HLA-DR DRB1*0802 (DR8); 3.63 µM against HLA-DR DRB1*0301 (DR3); 0.283 µM against HLA-DR DRB1*0701 (DR7). The IC50 on HLA-DR DRB1*0901 (DR9) amounted to 0.107 µM; against HLA-DR DRB1*1501 (DR15) (DRBI *1501), 6.5 µM; on HLA-DR DRB5*0101 (DR51) (DRB5 *0101), 0.04 µM.

Source of the values: patent US20060079453A1, “Hla binding peptides and their uses” (priority 2002, published 2006).
